Measurements published in patent US20230390248A1, “COMPOSITION FOR ENHANCING TUMOR PENETRATION OF ANTICANCER DRUG, COMPRISING LOSARTAN AS ACTIVE INGREDIENT, AND USE THEREOF” (priority 2020, published 2023).

Legend:
Format in all cases: in vivo, BALB/c nude mice
[1] = system: collagen; assay: Masson trichrome staining of collagen in gastric cancer tissue; conditions: gastric cancer tumor tissue; versus control; FIG. 3A
Procedure: Masson trichrome staining was performed for histological visualization of collagen, an extracellular component, which is considered as a disorder when TRZ travels. Tumor tissues were obtained by sacrificing animals. The obtained tissues were fixed overnight in 4% paraformaldehyde and transferred to OCT compounds (Sakura Finetec, USA). The tissues were sectioned to a thickness of 40 μm. Staining was performed according to the kit protocol (Abcam (www.abcam.com) ab150686).
Bouin's Fluid was applied to each section and cultured overnight at room temperature. The slides were washed with water, cultured in Weigert's iron hematoxylin for 5 minutes, then washed with tap water, and cultured in Biebrich scarlet/acid fuchsin solution for […]. Without washing, the slides were re-cultured with aniline blue for 30 minutes. The slides were then washed with water and cultured in acetic acid for 3-5 minutes.
It was also dehydrated in graded alcohol, washed in xylene, and then mounted to a class slide using a mounting medium. The slides were visualized, and images were filmed with the Olympus BX53 system microscope (Olympus, life science solution, Waltham, Massachusetts (02453)).

[2] = system: hyaluronan; assay: Hyaluronan staining (alcian blue) in gastric cancer tissue; conditions: gastric cancer tumor tissue; versus control; FIG. 3B
Procedure: Hyaluronan staining was performed using alcian blue stain kit (Vector laboratories, Burlingame, CA 94010, Alcian Blue (pH 2.5), Stain kit, H-3501). The tissues were sectioned to a thickness of 20 μm. The sections were washed with water to remove excess OCT. Acetic acid was treated to tissue sections for 3 minutes, and then Alcian blue solution was treated at 37° C. for 30 minutes. Excess staining was removed by washing with acetic acid. It was then washed with tap water for 2 minutes and then with distilled water for 1-2 minutes. In addition, the nuclear fast red solution was treated for 5 minutes, and washing was followed with tap water and then with distilled water. The slides were dehydrated in graded alcohol and removed from xylene, and then a cover slip was mounted. The slides were visualized, and images were filmed with Olympus BX53 system microscope (Olympus, life science solution, Waltham, Massachusetts (02453)).

[3] = system: gastric cancer (NCI-N87); assay: Treatment efficacy of combined RIT using losartan and ^64Cu-TRZ; conditions: compared to the control (PBS); losartan 60 mg/kg s.c. for 25 days; FIG. 5A
Procedure: To identify gastric cancer (NCI-N87) treatment efficacy of the combined therapy using losartan and trastuzumab, the groups were classified into ^64Cu-TRZ treated group (n=7), losartan-included ^64Cu-TRZ treated group (n=7), losartan solely treated group (n=6), TRZ solely treated group (n=6), and PBS treated group (n=8). […] Losartan was delivered subcutaneously (60 mg/kg for 25 days), and TRZ (150 μg) was injected intravenously once at the start of treatment.

Q: Which results are given for `CCCCc1nc(Cl)c(CO)n1Cc1ccc(-c2ccccc2-c2nn[nH]n2)cc1` [losartan]?
A: collagen (masson trichrome staining) [1]: reduced collagen; hyaluronan (alcian blue staining) [2]: reduced hyaluronan; tumor growth response [3]: tumoricidal response
